Source: patent US11154071B2, “Sweetener iso-mogroside V” (Glvaudan SA, priority 2007, dated 2021)

Assays:
Type in all cases: in vivo
[1] = test system: sweet sensitive panelists; assay: Determination of the sweetness threshold of iso-mogroside V: isointensity to sucrose solutions, paired comparison
Experimental: […] Samples were paired and tasted left to right with rinsing of the mouth (water) in-between. 20 ppm iso-mogroside V was evaluated as described but with 4 sweet sensitive panelists and 0.5, 1.0 and 1.5% sucrose.

[2] = Preliminary experiments on flavour enhancing effect on sweeteners
[3] = test system: sweet sensitive panelists; assay: Sweetness enhancement of iso-mogroside V at near threshold concentration in 7% sucrose solution, sensory panel; details: 10 ppm iso-mogroside V in 7% sucrose solution
Experimental: The sweetness enhancement properties of iso-mogroside V was determined using a sample having a concentration of 10 ppm iso-mogroside V, which is near the sweetness detection threshold, in 7% sucrose solution.
The iso-mogroside V sample was directly compared to samples of 7%, 8% or 9% sucrose, and panelists were instructed to compare the sweetness intensity of the samples.
The comparisons were carried out by a panel of 6 sweet sensitive panelists. All samples were presented to panelists in 15 ml aliquots at ambient temperature. Panelists compared the iso-mogroside V sample to each of the sucrose samples.

[4] = test system: sweet sensitive panelists; assay: Comparison of the sweetness of mogroside V and iso-mogroside V in water, blind samples, sensory panel; details: panel of 4
Experimental: The intensity of sweet taste of iso-mogroside V when compared to mogroside V was determined in water using near-sweetness detection threshold concentrations. The direct comparison was carried out by a panel of 4 sweet sensitive panelists. Blind samples (identity unidentifiable by panelists) were randomly presented to panelists in 15 ml aliquots at ambient temperature. Sensory evaluation started with the lower sample concentration (10 ppm).

In the case of `C[C@H](CC[C@@H](O[C@@H]1O[C@H](CO[C@@H]2O[C@H](CO)[C@@H](O)[C@H](O)[C@H]2O)[C@@H](O)[C@H](O)[C@H]1O[C@@H]1O[C@H](CO)[C@@H](O)[C@H](O)[C@H]1O)C(C)(C)O)[C@H]1CC[C@@]2(C)[C@@H]3CC=C4[C@@H](CC[C@H](O[C@@H]5O[C@H](CO)[C@@H](O[C@@H]6O[C@H](CO)[C@@H](O)[C@H](O)[C@H]6O)[C@H](O)[C@H]5O)C4(C)C)[C@]3(C)[C@H](O)C[C@]12C` [iso-mogroside V, 3-[(4-O-β-D-glucopyranosyl-β-D-glucopyranosyl)oxy]-mogrol-24-O-β-D-glucopyranosyl-(1→2)-O-[β-D-glucopyranosyl-(1→6)]-β-D-glucopyranoside], the “Taste of iso-mogroside V samples compared to sucrose” value (“Taste … compared to sucrose” for short) ([1]; 10 ppm in water vs 0% sucrose (water), 5 panelists) is reported as “sweeter”, the “Taste … compared to sucrose” value ([1]; 10 ppm in water vs 0.5% sucrose, 5 panelists) is reported as “isosweet” and the “Taste … compared to sucrose” value ([1]; 10 ppm in water vs 1.0% sucrose, 5 panelists) is reported as “less sweet”. The “Taste … compared to sucrose” value ([1]; 20 ppm in water vs 0.5% sucrose, 4 panelists) was “sweeter”, the “Taste … compared to sucrose” value ([1]; 20 ppm in water vs 1% sucrose, 4 panelists) was “isosweet” and the “Taste … compared to sucrose” value ([1]; 20 ppm in water vs 1.5% sucrose, 4 panelists) was “less sweet”. The “equivalent sweetness intensity at the sweetness detection threshold” value ([1]; about 0.2 ppm in water as stated) was “about 0.5 % sucrose”, the “sweetness relative to sucrose” value ([1]; from 10 ppm isosweet to 0.5% sucrose) was “about 500 times” and the “flavour enhancing effect on sweeteners compared to its known isomer (mogroside V)” value [2] was “particularly high flavour enhancing effect”. For the same molecule, the “panelists who found the sample as sweet or sweeter as 8% sucrose” value [3] was 5 of 6, the “panelists who found the sample sweeter than 7% but less sweet than 8% sucrose” value [3] was 1 of 6 and the “sweetness enhancement effect (equal to sucrose)” value ([3]; after subtracting own sweetness of 0.5% sucrose) was at least 0.5 % sucrose. For the same molecule, the “sweetness of iso-mogroside V sample (equal to sucrose)” value ([3]; compared to 7%, 8% or 9% sucrose, panel of 6) was at least 8 % sucrose, the “Taste of iso-mogroside V samples compared to mogroside V” value ([4]; 10 ppm in water) was “sweeter” and the “panelists who indicated iso-mogroside V is sweeter than mogroside V” value ([4]; 10 ppm in water) was “two”. The “Taste of iso-mogroside V samples compared to mogroside V” value ([4]; 20 ppm in water) was “sweeter” and the “panelists who indicated iso-mogroside V is sweeter than mogroside V” value ([4]; 20 ppm in water) was 4 panelists.
